In EP1082333B1, “THIOCO[…], PREPARATION AND THERAPEUTIC APPLICATION” (SANOFI-SYNTHELABO, priority 1998, dated 1999):

Test system: réflexe polysynaptique
Assay: Inhibition of the polysynaptic reflex in the normal rat (RPRN), EMG of biceps femoris
Type: in vivo
Settings: 10 mg/kg, voie i.p
From the text: L'activité décontraccurante du composé de l'invention a été déterminée par l'inhibition du réflexe polysynaptique chez le rat normal (RPRN). L'animal est placé en contention en décubitus ventral. Les membres postérieurs sont immobilisés. Les réflexes polysynaptiques sont évoqués dans le muscle Biceps fémoral (fléchisseur de la cuisse) par stimulation électrique de la voûte plantaire (territoire cutané du nerf sural). L'EMG (Electro-Myo-Graphie) est recueilli par deux électrodes en acier inoxydable insérées dans le muscle parallélement aux fibres.
Les électrodes de stimulation en acier inoxydable sont insérées en position sous-cutanée. La stimulation consiste en un choc électrique carré de 0.2-0.4 ms de durée et de 0.2 Hz de fréquence. L'intensité de la stimulation est réglée pour obtenir des réflexes bien constitués et de surface stable (8-12 mA).
L'EMG est amplifié. La surface de chaque réflexe est mesurée.
Des séries de 20 réflexes sont enregistrées toutes les 15 minutes. La surface des 20 réflexes de chaque série est moyennée.
Après plusieurs séries contrôles, le produit à étudier est administré. La moyenne des 20 premières réponses contrôles est prise pour 100 %. L'évolution des réponses EMG est suivie alors pendant 2 ou 3 heures.

COc1c(OC2OC(C(=O)O)C(O)C(O)C2O)cc2c(c1OC)-c1ccc(SC)c(=O)cc1C(NC(C)=O)CC2 (stereo not shown) [composé de l'invention]
inhibe le réflexe polysynaptique: 78%
